The structures appear in SMILES notation.

The inhibition in vivo is the change of the read-out against control, counted positive when it falls.

In the assay the test system is PCA response. Put plainly: rat Passive Cutaneous Anaphylaxis Test (PCA test). It counts as in vivo, rat (male Wistar). The settings on record: sc, subcutaneous, sodium salt. As for the experimental part: The compounds prepared in the preceding examples were tested in the rat Passive Cutaneous Anaphylaxis Test (PCA test), described below. They were administered as their sodium salts either in pH 7.2 phosphate buffer (for soluble salts) or as a suspension in 1% methyl cellulose (for insoluble salts).
Male Wistar rats of 250-300 g, were injected intraperitoneally with 0.5 ml. of Bordatella pertussis vaccine (containing 4× 10^10 dead organism per ml) and subcutaneously with 0.5 ml. of an emulsion of 100 mg. of ovalbumin in 2 ml. of saline and 3 ml. of incomplete Freunds' adjuvant. Rats were bled by cardiac puncture on day 18, the blood was pooled and separated and serum stored at -20° and thawed only once before use.
0.1 ml. of each of six twofold serial dilutions of the serum in 0.9% saline were injected intradermally into separate sites on the shaved dorsal surface of 250-350 g. Male Wistar rats. 72 hours later the animals were challenged by i.v. injection of 0.3 ml. of 1% ovalbumin mixed with 0.1 ml. of a 5% solution of pontamine sky blue dye both in isotonic saline buffered with pH 7.2 Sorenson buffer (P.B.S.). The rats were killed after 20 minutes and the diameter of the blue wheals at the antibody injection sites were measured. The starting dilution of the serum was adjusted so that there was no response, after challenge, at the site of injection of the highest dilution and a maximum response at the two or three lowest dilutions.
Amounts of the compounds were administered to rats by subcutaneous injection, into the nucal region, of a solution of the compound in P.B.S. or as a suspension in 1% methyl cellulose, each amount a test group of six animals at a specified time prior to intravenous challenge with ovalbumin.
% Inhibition of P.C.A.= 100 (1 -a/b)
For those compounds having insoluble sodium salts, the salts were isolated by reaction of the free cyano compound with 2.5N sodium hydroxide and the filtered sodium salt washed free of alkali with water. The dried salts were then administered as a suspension in 1% methyl cellulose.

Where [1] appears, read: 10 min, 10 mins. prior to challenge.
Where [2] appears, read: 0 h, 0 mins. prior to challenge.
The mark [3] stands for this setting: 0.5 h, 30 mins. prior to challenge.
The mark [4] stands for this setting: 1 h, 60 mins. prior to challenge.

As to `Cc1cc2c(cc1C)C(=O)C(C#N)C2=O` [Example 3, 2-Cyano-5,6-dimethyl indan-1,3-dione], under setting [1], the inhibition in vivo at 2.5 mg/kg was 46%, the inhibition in vivo at 5 mg/kg was found to be 56%, the inhibition in vivo at 10 mg/kg was 77% and the inhibition in vivo at 20 mg/kg worked out at 92%.

On to `N#CC1C(=O)c2ccccc2C1=O` [Example 1, 2-Cyano indan-1,3-dione], for which the inhibition in vivo at 25 mg/kg turned out to be 43% under setting [2] and 8% under setting [3]. Moreover, the inhibition in vivo at 100 mg/kg was 64% under setting [2] and 16% under setting [3].

For the compound `CCc1ccc2c(O)c(C#N)c(=O)oc2c1` [Example 15, 3-Cyano-7-ethyl-4-hydroxy coumarin], the inhibition in vivo at 25 mg/kg is, setting by setting: under setting [2], 34%; under setting [3], 27%. Moreover, the inhibition in vivo at 100 mg/kg under setting [2] worked out at 64% and the inhibition in vivo at 100 mg/kg under setting [3] came to 17%.

Turning to `N#CC1C(=O)c2cc3ccccc3cc2C1=O` [Example 6, 5,6-Benzo-2-cyano indan-1,3-dione], under setting [1], the inhibition in vivo at 25 mg/kg was found to be 88% and the inhibition in vivo at 100 mg/kg turned out to be 70%. Moreover, under setting [3], the inhibition in vivo at 25 mg/kg amounted to 27% and the inhibition in vivo at 100 mg/kg turned out to be 30%.

Regarding `Cc1ccc2c(O)c(C#N)c(=O)oc2c1C` [Example 21, 3-Cyano-7,8-dimethyl-4-hydroxycoumarin monohydrate], under setting [1], the inhibition in vivo at 2.5 mg/kg turned out to be 20%, the inhibition in vivo at 5 mg/kg was 39%, the inhibition in vivo at 10 mg/kg was 65% and the inhibition in vivo at 20 mg/kg came to 97%.

Turning to `COc1ccc2oc(=O)c(C#N)c(O)c2c1` [Example 20, 3-Cyano-4-hydroxy-6-methyloxycoumarin], under setting [2], the inhibition in vivo at 25 mg/kg came out at 54% and the inhibition in vivo at 100 mg/kg was found to be 72%. For the same compound, under setting [3], the inhibition in vivo at 25 mg/kg is 29% and the inhibition in vivo at 100 mg/kg was found to be 36%.

Consider `Cc1ccc2c(c1)C(=O)C(C#N)C2=O` (stereo not drawn) [Example 2, 2-Cyano-5-methyl indan-1,3-dione], for which, under setting [2], the inhibition in vivo at 25 mg/kg worked out at 45% and the inhibition in vivo at 100 mg/kg stood at 76%. Moreover, under setting [3], the inhibition in vivo at 25 mg/kg stood at 15% and the inhibition in vivo at 100 mg/kg was 35%.

In the case of `CCOc1ccc2c(O)c(C#N)c(=O)oc2c1` [Example 16, 3-Cyano-7-ethyloxy-4-hydroxy coumarin monohydrate], under setting [1], the inhibition in vivo at 5 mg/kg is 59%, the inhibition in vivo at 10 mg/kg was found to be 71%, the inhibition in vivo at 20 mg/kg was 86% and the inhibition in vivo at 40 mg/kg was determined as 73%.

For `N#Cc1c(O)c2cc3ccccc3cc2oc1=O` [Example 17, 3-Cyano-4-hydroxy-2-oxo-2H-naphtho[2,3-b] pyran], the inhibition in vivo at 25 mg/kg runs as follows: under setting [2], 9%; under setting [4], 23%. In addition, the inhibition in vivo at 100 mg/kg runs as follows: under setting [2], 15%; under setting [4], 18%.

Consider `Cc1ccc2c(O)c(C#N)c(=O)oc2c1` [Example 14, 3-Cyano-4-hydroxy-7-methyl coumarin], for which, under setting [2], the inhibition in vivo at 25 mg/kg turned out to be 45% and the inhibition in vivo at 100 mg/kg is 74%. Moreover, under setting [3], the inhibition in vivo at 25 mg/kg amounted to 14% and the inhibition in vivo at 100 mg/kg was 18%.

For the compound `Cc1ccc2oc(=O)c(C#N)c(O)c2c1` [Example 13, 3-Cyano-4-hydroxy-6-methyl coumarin], under setting [2], the inhibition in vivo at 25 mg/kg came out at 14% and the inhibition in vivo at 100 mg/kg came out at 40%. For the same compound, under setting [3], the inhibition in vivo at 25 mg/kg is 21% and the inhibition in vivo at 100 mg/kg is 22%.

For `N#Cc1c(O)c2cc3c(cc2oc1=O)CCCC3` [Example 18, 3-Cyano-4-hydroxy-2-oxo-6,7,8,9-tetrahydro-2H-naphtho [2,3-b] pyran], the inhibition in vivo at 1 mg/kg (10 min, 1 mg/kg, 10 mins. prior to challenge) was 2%. Moreover, the inhibition in vivo at 2 mg/kg (10 min, 2 mg/kg, 10 mins. prior to challenge) came out at 22%. Besides, the inhibition in vivo at 4 mg/kg (10 min, 4 mg/kg, 10 mins. prior to challenge) is 52%. For the same compound, under “10 min, 8 mg/kg, 10 mins. prior to challenge”, the inhibition in vivo at 8 mg/kg is 67%.

Consider `Cc1cccc2c(O)c(C#N)c(=O)oc12` [Example 19, 3-Cyano-4-hydroxy-8-methylcoumarin monohydrate], for which the inhibition in vivo at 25 mg/kg is, setting by setting: under setting [2], 48%; under setting [3], 23%. The inhibition in vivo at 100 mg/kg by setting is: under setting [2], 67%; under setting [3], 35%.

`Cc1cccc2c1C(=O)C(C#N)C2=O` (stereo not drawn) [Example 4, 2-Cyano-4-methyl indan-1,3-dione]: under setting [1], the inhibition in vivo at 5 mg/kg turned out to be 21%, the inhibition in vivo at 10 mg/kg turned out to be 25%, the inhibition in vivo at 20 mg/kg came to 75% and the inhibition in vivo at 40 mg/kg worked out at 83%.

As to `CCc1cc2oc(=O)c(C#N)c(O)c2cc1CC` [Example 12, 3-Cyano-6,7-diethyl-4-hydroxy coumarin], under setting [1], the inhibition in vivo at 2.5 mg/kg came out at 64%, the inhibition in vivo at 5 mg/kg came out at 72%, the inhibition in vivo at 10 mg/kg amounted to 68% and the inhibition in vivo at 20 mg/kg was 93%.

Take `COc1cccc2c1C(=O)C(C#N)C2=O` (stereo not drawn) [Example 5, 2-Cyano-4-methoxy indan-1,3-dione]: under setting [1], the inhibition in vivo at 5 mg/kg was 28%, the inhibition in vivo at 10 mg/kg came to 16%, the inhibition in vivo at 20 mg/kg is 57% and the inhibition in vivo at 40 mg/kg came to 81%.

Regarding `N#CC1C(=O)c2ccc(Cl)cc2C1=O` (stereo not drawn) [Example 7, 5-Chloro-2-cyano indan-1,3-dione], under setting [1], the inhibition in vivo at 10 mg/kg was determined as 33% and the inhibition in vivo at 25 mg/kg came to 76%. For the same compound, under setting [3], the inhibition in vivo at 10 mg/kg came out at 21% and the inhibition in vivo at 25 mg/kg was 15%.

On to `CCc1cc2c(O)c(C#N)c(=O)oc2cc1C` [Example 10, 3-Cyano-6-ethyl-4-hydroxy-7-methyl coumarin], for which, under setting [1], the inhibition in vivo at 10 mg/kg was 71% and the inhibition in vivo at 25 mg/kg was found to be 67%. Under setting [3], the inhibition in vivo at 10 mg/kg stood at 24% and the inhibition in vivo at 25 mg/kg came out at 17%.

On to `CCc1cc2c(cc1CC)C(=O)C(C#N)C2=O` [Example 8, 2-Cyano-5,6-diethyl indan-1,3-dione], for which, under setting [1], the inhibition in vivo at 5 mg/kg was 74%, the inhibition in vivo at 10 mg/kg came to 90%, the inhibition in vivo at 20 mg/kg is 78% and the inhibition in vivo at 40 mg/kg stood at 64%.

Turning to `Cc1cc2oc(=O)c(C#N)c(O)c2cc1C` [Example 11, 3-Cyano-6,7-dimethyl-4-hydroxycoumarin monohydrate], the inhibition in vivo at 25 mg/kg runs as follows: under setting [2], 51%; under setting [3], 16%. The inhibition in vivo at 100 mg/kg is, setting by setting: under setting [2], 72%; under setting [3], 11%.

As to `N#Cc1c(O)c2ccccc2oc1=O` [Example 9, 3-Cyano-4-hydroxycoumarin], under setting [2], the inhibition in vivo at 25 mg/kg stood at 64% and the inhibition in vivo at 100 mg/kg amounted to 87%. Under setting [3], the inhibition in vivo at 25 mg/kg came to 30% and the inhibition in vivo at 100 mg/kg amounted to 40%.

The values above are taken from patent US4032544A, “3-Cyano-4-hydroxy coumarin derivatives” (Beecham Group Limited, priority 1974, dated 1977).
